Test results: US20210283163A1, “COMPOSITIONS AND METHODS FOR THE TREATMENT OF ACUTE AND CHRONIC PRURITIS” (Duke University, priority 2018, published 2021)

Legend:
human DRG neurons = experiment: Whole-cell patch clamp, inward currents in human DRG neurons; assay type: cell-based; details: A967079 10 μM
Protocol: Non-diseased human DRGs were obtained from donors through National Disease Research Interchange (NDRI) with permission of exemption from the Duke University Institutional Review Board (IRB). Postmortem L3-L5 DRGs were dissected from 4 donors and delivered in ice cold culture medium to the laboratory at Duke University within 24-72 hr of the donor's death. Upon the delivery, DRGs were rapidly dissected from nerve roots and minced in a calcium-free HBSS (GIBCO). Human DRG cultures were prepared as previously reported (Chang et al., Neurosci. Bull. 2018, 34, 4-12; Han et al., Neuron 2016, 92, 1279-1293). DRGs were digested at 37° C. in a humidified CO2 incubator for 120 min with collagenase Type II (Worthington, 290 units/mg, 12 mg/mL final concentration) and dispase II (Roche, 1 unit/mg, 20 mg/mL) in PBS with 10 mM HEPES, pH adjusted to 7.4 with NaOH. DRGs were mechanically dissociated using fire-polished pipettes, filtered through a 100 μm nylon mesh and centrifuged (500 g for 5 min). The pellet was resuspended, plated on 0.5 mg/mL poly-D-lysine-coated glass coverslips, and grown in Neurobasal medium supplemented with 10% FBS, 2% B-27 supplement, and 1% penicillin/streptomycin. Whole-cell patch-clamp recordings in small (<[…]) human DRG neurons were conducted at room temperature using patch pipettes with resistances of 3-4 MΩ.
Whole-Cell Patch Clamp Recordings in HEK293 Cells, CHO Cells, and DRG Neurons. Whole-cell patch clamp recordings were performed at room temperature using an Axopatch-200B amplifier (Axon Instruments) with a Digidata 1440B (Axon Instruments). In this study, we only examined small-diameter mouse DRG neurons (<25 μM) and small-diameter human DRG neurons (<55 μM). The patch pipettes were pulled from borosilicate capillaries (World Precision Instruments) using a P-97 Flaming/Brown micropipette puller (Sutter Instrument). Pipette resistance was 4-6 MΩ for whole-cell and outside-out recording. […]

mice = experiment: Acute pruritus induced by intradermal pruritogens, effect of peptides; assay type: in vivo, mouse; details: peptide 2 mM
Protocol: Behavioral Assessment for Scratching (Itch) and Wiping (Pain). Mice were shaved on the cheek or nape after a brief anesthesia with isoflurane. Before experiments, mice were habituated in small plastic chambers (14×18×12 cm) daily for two days. The room temperature and humidity remained stable for all the experiments. […] After the injection, the number of scratches in 60 min was counted. A scratch was counted when a mouse lifted its hind paw to scratch the shaved region and returned the paw to the floor or to the mouth. A bout of wiping was defined as a continuous wiping movement with a forepaw directing at the area of the injection area (Shimada and LaMotte, Pain 2008, 139, 681-687). Scratching and wiping behavior was videoed for 30 min or 60 min using Sony HDR-CX610 camera. The video was subsequently played back offline and the numbers of scratches and wipes were quantified in a blinded manner.

calcium channels = experiment: Calcium current recording in mouse DRG neurons; assay type: cell-based; details: 10 μM, 1 min
Protocol: To test the effects of miR-711 on calcium channels, calcium currents were recorded in mouse DRG neurons (Andrade et al., Nat. Neurosci. 2010, 13, 1249-1256). Calcium current was evoked by a 40-ms step depolarization to −10 mV from the holding potential of −80 mV, using i) external solution (mM): 135 mM TEA-C1, 1 mM CaCl2, 10 mM HEPES, 4 mM MgCl2 and 0.1 μM TTX, adjusted to a pH of 7.4 with TEA-OH, and ii) the pipette solution: 126 mM CsCl, 5 mM Mg-ATP, 10 mM EGTA and 10 mM HEPES, adjusted to a pH of 7.3 with CsOH.

CCC(=N\O)/C(C)=C/c1ccc(F)cc1 [A967079, (1E,3E)-1-(4-Fluorophenyl)-2-methyl-1-pentene-3-one oxime]
block of miRNA-evoked inward currents in human DRG neurons (human DRG neurons): blocked

NH2-FRNELAYPVLTFGQL-COOH (H-FRNELAYPVLTFGQL-OH) [blocking peptide]
effect on miR-711-induced pruritus (mice; 15 μL intradermal, mmu-miR-711 1 mM, 10 μL): prevented
effect on acute itch induced by compound 48/80 (mice; 15 μL, 48/80 50 μg/10 μL): no effect
effect on acute itch induced by chloroquine (mice; 15 μL, CQ 100 μg/10 μL): no effect

miR-711: mmu-miR-711: gggacccggggagagauguaag (SEQ ID NO: 5) (GGGACCCGGGGAGAGAUGUAAG; chemistry not given here)
calcium currents in DRG neurons (calcium channels): did not alter calcium currents
